# Results from PubChem BioAssay (NCI).
#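 A five-concentration, 48-hour dose response in 96-well plates underlies each endpoint, interpolated linearly between surrounding concentrations. Here, GI50 denotes the concentration required for 50% inhibition of growth. TGI denotes the concentration required for complete inhibition of growth.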
# System: MDA-MB-468 breast
# Experiment: NCI tumour cell line growth inhibition, 48 h
Structure (SMILES),GI50,TGI
O=C1NC(=NCCc2ccc(F)cc2)S/C1=C\c1ccc2ncccc2c1,> 20.9 µM,> 25 µM
CCOC(=O)[C@@H](C)C[C@H](Cc1ccccc1)NC(=O)c1csc([C@@H](C[C@H](C(C)C)N(C)C(=O)[C@@H](NC(=O)[C@H]2CCCCN2C)C(C)(C)CC)OC(C)=O)n1,< 0.00167 µM,–
Fc1ccc(-c2cc3nc(C(Cl)Cl)nc(-c4ccc(Cl)cc4)n3n2)cc1,1.73 µM,4.12 µM
CCOCC1(COCC)CCC(c2[nH]ncc2CN(C)CCNC)CC1,46.6 µM,> 100 µM
NCCN1CCN(c2nc(-c3ccccc3)nc3nc(-c4ccccc4)oc23)CC1,1.63 µM,3.2 µM
CCN1CCN(c2nc(C)cc(N(CCCNc3ccnc4cc(Cl)ccc34)Cc3ccc4c(c3)OCO4)n2)CC1,1.92 µM,4.93 µM
O=C1Nc2ccc(Br)cc2C12CC(c1ccccc1)=NN2 (stereo unspecified),3.04 µM,41.8 µM
O=C(Nc1ccc(Oc2ccc3nc(NC(=O)c4ccco4)[nH]c3c2)cc1)Nc1cc(C(F)(F)F)ccc1F,1.37 µM,11.5 µM
Oc1ccc(Cl)cc1C(c1cc(Cl)ccc1O)C(Cl)(Cl)Cl,2.58 µM,8.11 µM
CSC1=NC(=Nc2c(C)cccc2C)C2(CCC(C(C)(C)C)CC2)N1c1ccc(Cl)cc1 (stereo unspecified),4.83 µM,> 100 µM
COc1cc2oc(-c3cccc(C(=O)Nc4ccc(Cl)cc4)c3)cc(=O)c2c(OC)c1OC,3.64 µM,85.7 µM
O=C(Nc1ccc(Oc2ccc(F)cc2)cc1)[C@@H]1C[C@@H](Cc2ccc(F)cc2)CN1C(=O)Cn1ccnn1,4.5 µM,29 µM
C#Cc1cccc(Nc2ncnc3cc(NC(=O)CCl)ccc23)c1,0.716 µM,3.16 µM
CCCCN(CCCC)C(=O)[C@H](CC)[C@@H]1CC[C@@H](C)[C@@H]([C@H](C)[C@@H](O)[C@@H](C)C(=O)[C@H](CC)C2O[C@]3(C=C[C@@H](O)[C@]4(CC[C@@](C)([C@H]5CC[C@](O)(CC)[C@H](C)O5)O4)O3)[C@H](C)C[C@@H]2C)O1 (stereo partly specified),1.47 µM,3.89 µM
CC1CC2C3CCC4=CC(=O)C=CC4(C)C3(F)C(O)CC2(C)C1(O)C(=O)COP(=O)(O)O (stereo unspecified),> 500 µM,> 500 µM
CN(C)c1ccc(/C=C\c2ccnc3ccccc23)cc1,0.233 µM,0.564 µM
N#CCn1c(=O)c(Oc2ccc(F)cc2F)cc2cnc(NC3CCOCC3)nc21,> 18.9 µM,> 25 µM
COc1cc(/C=C2\C(=O)N(Cc3ccc(Cl)cc3)c3ccccc32)cc(OC)c1OC,2.66 µM,8.06 µM
COC1(CC[C@@H](C)COC2OC(CO)C(O)C(O)C2O)O[C@H]2C[C@H]3[C@@H]4CC=C5C[C@@H](OC6OC(CO)C(OC7OC(C)C(O)C(O)C7O)C(O)C6OC6OC(C)C(O)C(O)C6O)CC[C@]5(C)[C@H]4CC[C@]3(C)[C@H]2[C@@H]1C (stereo partly specified),1.38 µM,3.01 µM
Clc1nccc2c(-c3csc(-c4c[nH]c5ccc(Br)cc45)n3)c[nH]c12,1.18 µM,3.81 µM
O=C1NC(=S)S/C1=C\c1cn(-c2ccccc2)nc1-c1ccccc1,6.83 µM,39.9 µM
O=C1CC(c2c[nH]c3ccc(F)cc23)C(=O)N1 (stereo unspecified),> 100 µM,> 100 µM
CN=C(N)c1ccc(N=C(N)c2ccc(-c3ccc(C(N)=Nc4ccc(C(N)=NC)cc4)cc3)cc2)cc1,74.4 µM,> 100 µM

Structure (SMILES),GI50,TGI
COc1cc2c(c(OC)c1OC)-c1ccc(SC)c(=O)cc1[C@@H](N)CC2,0.0786 µM,> 100 µM
COc1ccc(-c2cc(-c3ccc(Nc4nc(Nc5ccccc5)nc(Nc5ccc(Cl)cc5)n4)cc3)nc(N)n2)cc1,10.2 µM,34.2 µM
NS(=O)(=O)c1ccc(Nc2cc(-c3ccc(O)c(F)c3)[nH]n2)cc1,10.5 µM,> 25 µM
C=C1C(=O)O[C@H]2[C@H]1CC/C(COC(=O)c1cc(OC)c(OC)c(OC)c1)=C\CC[C@@]1(C)O[C@@H]21,0.344 µM,2.02 µM
COc1ccc2nc3cc(Cl)ccc3c(NCCCNCCO)c2c1,0.454 µM,1.89 µM
CC(C)=CCc1cc2c(cc1O)C1=C(C(=O)C3=C(C1=O)S(=O)(=O)CCN3)C(C=C(C)C)O2 (stereo unspecified),0.54 µM,2.59 µM
CC(=O)Nc1ccc(C(=O)CCl)cc1,1.81 µM,4.52 µM
COc1cnc2c(c1)C(=O)c1c-2n(CCCNC2=NCCS2)c(=O)c2cc(F)ccc12,0.19 µM,2.02 µM
O=C1NC(=NCc2ccccc2Cl)S/C1=C\c1ccc2ncccc2c1,3.61 µM,> 25 µM
COc1ccc2c(c1)OC(N)=C(C#N)C2c1cc(OC)c(OC)c(OC)c1 (stereo unspecified),0.0239 µM,0.0688 µM
CO[C@H]1C[C@@H]2CC[C@@H](C)[C@@](O)(O2)C(=O)C(=O)N2CCCC[C@H]2C(=O)O[C@H]([C@H](C)C[C@@H]2CC[C@@H](OC(=O)C(C)(CO)CO)[C@H](OC)C2)CC(=O)[C@H](C)/C=C(\C)[C@@H](O)[C@@H](OC)C(=O)[C@H](C)C[C@H](C)\C=C/C=C/C=C/1C,0.00189 µM,> 10 µM
CC(C)(C)c1cc(C(=O)Nc2ccccc2C(=O)NCCN)cc(C(C)(C)C)c1,2.01 µM,3.59 µM
O=C1Nc2ccc(Cl)cc2/C1=C\c1c(-c2ccc(Cl)cc2)nc2sc(C3CC3)nn12,6.68 µM,21.2 µM
c1cc(N[C@@H]2CCNC2)nc(-c2cnc3ccc(-c4cn[nH]c4)cn23)c1,0.957 µM,2.52 µM
COc1cc2c(c(OC)c1OC)-c1ccc(NN(C(=O)c3ccccc3)C(=O)c3ccccc3)c(=O)cc1[C@@H](NC(C)=O)CC2 (tested in a mixture with another compound),2.08 µM,6.71 µM
c1ccc(-c2oc(-c3ccccc3)c(CN3CCCCC3)c2CN2CCCCC2)cc1,1.45 µM,3.98 µM
CN1CCN(CC(=O)N(C)c2ccc(N=C(c3ccccc3)c3c(O)[nH]c4ccc(C#N)cc34)cc2)CC1,10.7 µM,24.1 µM
COc1cc(/C=C/C(=O)c2cccc(-n3cc(-c4cc(OC)c(OC)c(OC)c4)[nH]c3=O)c2)cc(OC)c1OC,1.57 µM,3.25 µM
O=C1/C(=C/c2ccc(Cl)c(Cl)c2)CN(C(=O)C(Cl)Cl)C/C1=C\c1ccc(Cl)c(Cl)c1,0.177 µM,0.398 µM
COc1cc(-c2cc(/C=C/C(=O)c3ccc(F)c(F)c3)[nH]n2)cc(OC)c1OC,2.27 µM,9.47 µM
COc1ccc(C(O)c2cc3c(N)c(C(=O)Nc4ccc(Cl)cc4)sc3nc2C)cc1 (stereo unspecified),1.94 µM,8.87 µM
COc1cc(CNCCCCCCN2C(=O)c3cccc4cccc(c34)C2=O)ccc1O,2.78 µM,9.33 µM
COc1cc2cc(Oc3ccc(NC(=O)Nc4cc(C(F)(F)F)cc(C(F)(F)F)c4)cc3)c(C)nc2cc1OCCN1CCOCC1,1.22 µM,3.76 µM
